Source: patent publication US4879381A, “7-(substituted or unsubstituted amino) 3-substituted methyl-^3 cephem-4-carboxylic acid” (Toyoma Chemical Company, Ltd., priority 1980, dated 1989)
≈ marks a conversion by molar mass, not a printed value. Counter-ions that a name gives are not always drawn. Like-named read-outs stand apart in the source and are kept apart here.

Assays:
Format in all cases: cell-based
[1] = system: E. coli NIHJ; assay: Antibacterial activity (MIC, agar plate, standard method of the Japanese Chemotherapeutic Society); conditions: 10^4 cells/plate, 37° C., 20 hours
Description: (§1) According to the standard method of the Japanese Chemotherapeutic Society [Chemotherapy, Vol. 23, Pages 1-2 (1975)], a culture obtained by cultivating bacteria in Heart Infusion broth (manufactured by Eken Kagakusha) at 37° C. for 20 hours was inoculated into a Heart Infusion agar medium (manufactured by Eiken Kagakusha) and cultivated at 37° C. for 20 hours, after which the growth of bacteria was examined visually. The minimum inhibitory concentration at which the bacterial growth was inhibited was taken as MIC (μg/ml). The amount of the inoculated bacteria was 10^4 cells/plate (10^6 cells/ml).

[2] = system: Aci. calcoaceticus A-6; assay: Antibacterial activity (MIC, agar plate); conditions: Acinetobacter calcoaceticus, A6, 10^4 cells/plate, 37° C., 20 hours, read-out: MIC
Description: as §1

[3] = system: Al. faecalis B-1; assay: Antibacterial activity (MIC, agar plate); conditions: Alcaligenes faecalis
Description: as §1

[4] = system: E. coli TK3 (Penicillinase-producing bacteria); assay: Antibacterial activity (MIC, agar plate)
Description: as §1

[5] = system: Ent. cloacae IID977; assay: Antibacterial activity (MIC, agar plate); conditions: Enterobacter cloacae, 10^4 cells/plate, 37° C., 20 hours, read-out: MIC
Description: as §1

[6] = system: Kl. pneumoniae Y-41; assay: Antibacterial activity (MIC, agar plate)
Description: as §1

[7] = system: Kl. pneumoniae Y-50; assay: Antibacterial activity (MIC, agar plate); conditions: 37° C., 20 hours
Description: as §1

[8] = system: Klebsiella spp Y-72; assay: Antibacterial activity (MIC, agar plate); conditions: Y72; Klebsiella spp Y-72; 10^4 cells/plate, 37° C., 20 hours; read-out: MIC
Description: as §1

[9] = system: Pro. mirabilis T-100; assay: Antibacterial activity (MIC, agar plate); conditions: 37° C., 20 hours
Description: as §1

[10] = system: Pro. mirabilis T-111; assay: Antibacterial activity (MIC, agar plate)
Description: as §1

[11] = system: Pro. morganii T-216; assay: Antibacterial activity (MIC, agar plate); conditions: Morganella morganii
Description: as §1

[12] = system: Pro. vulgaris GN76 (Cephalosporinase-producing bacteria); assay: Antibacterial activity (MIC, agar plate); conditions: Proteus vulgaris
Description: as §1

[13] = system: Ser. marcescens IID620; assay: Antibacterial activity (MIC, agar plate); conditions: Serratia marcescens
Description: as §1

[14] = Escherichia coli, read-out: MIC
[15] = B1, Al. faecalis B-1, 10^4 cells/plate, 37° C., 20 hours, read-out: MIC
[16] = Escherichia coli, E. coli TK3 (penicillinase-producing), 10^4 cells/plate, 37° C., 20 hours, read-out: MIC
[17] = Klebsiella pneumoniae, Y41, Kl. pneumoniae Y-41, 10^4 cells/plate, 37° C., 20 hours, read-out: MIC
[18] = Klebsiella pneumoniae, Y50, 10^4 cells/plate, read-out: MIC
[19] = Proteus mirabilis, T100, 10^4 cells/plate, read-out: MIC
[20] = Pro. vulgaris GN76 (cephalosporinase-producing), 10^4 cells/plate, 37° C., 20 hours, read-out: MIC
[21] = Klebsiella pneumoniae, Y41, 20 h
[22] = Proteus mirabilis, T111, Pro. mirabilis T-111, 10^4 cells/plate, 37° C., 20 hours, read-out: MIC
[23] = Ser. marcescens IID620, 10^4 cells/plate, 37° C., 20 hours, read-out: MIC

| Compound | MIC [1, 14] [µg/mL] | MIC [2] [µg/mL] | MIC [3, 15] [µg/mL] | MIC [5] [µg/mL] | MIC [6, 17] [µg/mL] | MIC [7, 18] [µg/mL] | MIC [9, 19] [µg/mL] | MIC ([10]; Proteus mirabilis, T111, 20 h) [µg/mL] | MIC ([11]; T216, 20 h) [µg/mL] | MIC [12, 20] [µg/mL] | MIC ([4]; Escherichia coli, 20 h) [µg/mL] | further results |
| --- | --- | --- | --- | --- | --- | --- | --- | --- | --- | --- | --- | --- |
| CO/N=C(\C(=O)NC1C(=O)N2C(C(=O)O)=C(Cc3ccc(O)cc3)CSC12)c1csc(N)n1 (stereo not drawn) [D, Trifluoroacetic acid salt of 7-[2-(2-aminothiazol-4-yl)-2-(syn)-methoxyiminoacetamido]-3-(4-hydroxybenzyl)-Δ^3-cephem-4-carboxylic acid] | ≤ 0.1 | 6.25 | 25 | 25 | 0.78 | 0.2 | ≤ 0.1 | 0.78 | 0.78 | 1.56 | – | MIC [4, 16]: 1.56 µg/mL; MIC [8]: 6.25 µg/mL; MIC ([13]; IID620, 20 h): 3.13 µg/mL |
| CO/N=C(\C(=O)NC1C(=O)N2C(C(=O)O)=C(Cn3ncnn3)CSC12)c1csc(N)n1 (stereo not drawn) [F, Trifluoroacetic acid salt of 7-[2-(2-aminothiazol-4-yl)-2-(syn)-methoxyiminoacetamido]-3-[2-(1,2,3,4-tetrazolyl)methyl]-Δ^3-cephem-4-carboxylic acid] | ≤ 0.1 | 6.25 | – | 12.5 | ≤ 0.1 | ≤ 0.1 | – | ≤ 0.1 | ≤ 0.1 | 0.78 | ≤ 0.1 | MIC ([3]; B1, 20 h): 3.13 µg/mL; MIC ([13]; IID620, 20 h): 0.39 µg/mL |
| CO/N=C(\C(=O)NC1C(=O)N2C(C(=O)O)=C(Cn3nnc(N)n3)CSC12)c1csc(N)n1 (stereo not drawn) [H, Trifluoroacetic acid salt of 7-[2-(2-aminothiazol-4-yl)-2-(syn)-methoxyiminoacetamido]-3-[2-(5-amino-1,2,3,4-tetrazolyl)methyl]-Δ^3-cephem-4-carboxylic acid] | ≤ 0.1 | 25 | 12.5 | 12.5 | 0.39 | 0.2 | – | 0.39 | 0.78 | 1.56 | 0.78 | MIC ([13]; IID620, 20 h): 0.78 µg/mL |
| CC(=O)Nc1nnn(CC2=C(C(=O)O)N3C(=O)C(NC(=O)Cc4csc(N)n4)C3SC2)n1 (stereo not shown) [M, Trifluoroacetic acid salt of 7-[2-(2-aminothiazol-4-yl)acetamido]-3-[2-(5-acetamido-1,2,3,4-tetrazolyl)methyl]-Δ^3-cephem-4-carboxylic acid] | 0.39 | – | – | – | 0.78 | 0.78 | 0.39 | 0.78 | – | – | 1.56 | – |
| CO/N=C(\C(=O)NC1C(=O)N2C(C(=O)O)=C(Cn3nnc(NC(C)=O)n3)CSC12)c1csc(N)n1 (stereo not drawn) [I, Trifluoroacetic acid salt of 7-[2-(2-aminothiazol-4-yl)-2-(syn)-methoxyiminoacetamido]-3-[2-(5-acetamido-1,2,3,4-tetrazolyl)methyl]-Δ^3-cephem-4-carboxylic acid] | ≤ 0.1 | – | – | – | – | ≤ 0.1 | ≤ 0.1 | ≤ 0.1 | – | – | 0.39 | MIC [6, 21]: 0.2 µg/mL |
| Cc1nnc(SCC2=C(C(=O)O)N3C(=O)[C@@H](NC(=O)Cn4cnnn4)[C@H]3SC2)s1 [Cephazoline, reference compound] | 1.56 (≈ 3.43 µM) | 200 (≈ 440 µM) | 100 (≈ 220 µM) | > 200 | 3.13 (≈ 6.89 µM) | 1.56 (≈ 3.43 µM) | – | – | – | > 200 | – | MIC [4, 16]: 25 µg/mL (≈ 55 µM); MIC [8]: > 200 µg/mL; MIC [10, 22]: 6.25 µg/mL (≈ 13.8 µM); MIC ([11]; T216, Pro. morganii T-216, 10^4 cells/plate, 37° C., 20 hours, read-out: MIC): > 200 µg/mL; MIC [13, 23]: > 200 µg/mL |
| CO/N=C(\C(=O)NC1C(=O)N2C(C(=O)O)=C(Cn3nnc(C)n3)CSC12)c1csc(N)n1 (stereo not drawn) [J, Trifluoroacetic acid salt of 7-[2-(2-aminothiazol-4-yl)-2-(syn)-methoxyiminoacetamido]-3-[2-(5-methyl-1,2,3,4-tetrazolyl)methyl]-Δ^3-cephem-4-carboxylic acid] | ≤ 0.1 | – | – | – | – | ≤ 0.1 | ≤ 0.1 | – | – | – | 0.39 | MIC [6, 21]: ≤ 0.39 µg/mL; MIC [10, 22]: 0.2 µg/mL |
| CO/N=C(\C(=O)NC1C(=O)N2C(C(=O)O)=C(Cn3cnnn3)CSC12)c1csc(N)n1 (stereo not drawn) [G, Trifluoroacetic acid salt of 7-[2-(2-aminothiazol-4-yl)-2-(syn)-methoxyiminoacetamido]-3-[1-(1,2,3,4-tetrazolyl)methyl]-Δ^3-cephem-4-carboxylic acid] | ≤ 0.1 | 25 | 12.5 | 6.25 | 0.2 | ≤ 0.1 | – | 0.2 | 0.2 | – | 0.39 | MIC ([12]; GN76, 20 h): 0.78 µg/mL; MIC [13, 23]: 1.56 µg/mL |
| CO/N=C(\C(=O)NC1C(=O)N2C(C(=O)O)=C(Cn3cnc(Cl)n3)CS[C@H]12)c1csc(N)n1.O=C(O)C(F)(F)F (stereo partly drawn) [L, Trifluoroacetic acid salt of 7-[2-(2-aminothiazol-4-yl)-2-(syn)-methoxyiminoacetamido]-3-[(3-chloro-1,2,4-triazolyl)methyl]-Δ^3-cephem-4-carboxylic acid] | – | – | – | – | – | – | – | – | – | – | – | MIC [1]: ≤ 0.1 µg/mL; MIC ([4]; E. coli TK3 (penicillinase-producing), 10^4 cells/plate, 37° C., 20 hours): 0.39 µg/mL; MIC ([6]; Kl. pneumoniae Y-41, 10^4 cells/plate, 37° C., 20 hours): 0.39 µg/mL; MIC ([7]; 10^4 cells/plate): ≤ 0.1 µg/mL; MIC ([9]; 10^4 cells/plate): ≤ 0.1 µg/mL; MIC ([10]; Pro. mirabilis T-111, 10^4 cells/plate, 37° C., 20 hours): 0.78 µg/mL |
| CCc1nnn(CC2=C(C(=O)O)N3C(=O)C(NC(=O)/C(=N\OC)c4csc(N)n4)C3SC2)n1 (stereo not drawn) [K, Trifluoroacetic acid salt of 7-[2-(2-aminothiazol-4-yl)-2-(syn)-methoxyiminoacetamido]-3-[2-(5-ethyl-1,2,3,4-tetrazolyl)methyl]-Δ^3-cephem-4-carboxylic acid] | ≤ 0.1 | – | – | – | 0.78 | 0.2 | ≤ 0.1 | 0.78 | – | – | 0.39 | – |
| Nc1nc(CC(=O)NC2C(=O)N3C(C(=O)O)=C(Cn4ncnn4)CSC23)cs1 (stereo not shown) [N, Trifluoroacetic acid salt of 7-[2-(2-aminothiazol-4-yl)acetamido]-3-[2-(1,2,3,4-tetrazolyl)methyl]-Δ^3-cephem-4-carboxylic acid] | 0.39 | – | – | – | 0.78 | 0.39 | 0.39 | 0.78 | – | – | 1.56 | – |
